Source: patent US20240122212A1 (SUNTORY HOLDINGS LIMITED, priority 2020, published 2024)
Read-outs that look alike come from different tables or passages of the source.

Tests used:
[1] = sucrose per unit concentration Brix 1 = 1, cited from earlier work
[2] = Basic taste quality sensory evaluation by trained panelists, spitting test, against 6% sucrose control (Example 1); format: in vivo, human; conditions: scale −3 to 3, 0 = no difference from 6% sucrose control; D-allulose 8.57 w/v %, D-arabinose 10 w/v % in pure water; 4 panelists
Experimental: In each evaluation item, the rating on a scale of −3 point to 3 point was performed, with the case where there is no difference from the control solution being 0. Quicker in sweetness onset, higher sweetness intensity, shorter lingering sweet aftertaste, lower bitterness intensity, and shorter lingering bitter aftertaste compared to the control were rated near 3 points. Slower in sweetness onset, lower sweetness intensity, longer lingering sweet aftertaste, higher bitterness intensity, and longer lingering bitter aftertaste compared to the control were rated near −3 points. That is, the closer to 0 point, the closer to the control. The evaluation was carried out by those (4 persons) who received sensory trainings as panelists by spitting test. The amount of a sweet substance contained in each sample solution was adjusted to be equal to the control solution on the calculation. […] The energy (kcal/100 ml) was calculated from the amount of the sweetener added.

[3] = target: T1, sweet taste receptor (T1R2/T1R3) (Homo sapiens, UniProt Q7RTX0+Q8TE23); assay: Sensory evaluation of sweetness intensity (VAS) in the co-presence of sweet taste receptor inhibitor lactisole (Example 5); format: in vivo; conditions: for Sweetness intensity residual ratio (%) with addition of 100 ppm lactisole: lactisole-free solution = 100%, sucrose 8 w/v %, sucralose 149 ppm, D- or L-arabinose 13.3 w/v %, VAS, average of n=3
T1 construct: endogenous in cells; host or cells: taste cells in the mouths of 3 trained human panelists (in vivo spitting test)
T1 sequence (Q8TE23 20-839): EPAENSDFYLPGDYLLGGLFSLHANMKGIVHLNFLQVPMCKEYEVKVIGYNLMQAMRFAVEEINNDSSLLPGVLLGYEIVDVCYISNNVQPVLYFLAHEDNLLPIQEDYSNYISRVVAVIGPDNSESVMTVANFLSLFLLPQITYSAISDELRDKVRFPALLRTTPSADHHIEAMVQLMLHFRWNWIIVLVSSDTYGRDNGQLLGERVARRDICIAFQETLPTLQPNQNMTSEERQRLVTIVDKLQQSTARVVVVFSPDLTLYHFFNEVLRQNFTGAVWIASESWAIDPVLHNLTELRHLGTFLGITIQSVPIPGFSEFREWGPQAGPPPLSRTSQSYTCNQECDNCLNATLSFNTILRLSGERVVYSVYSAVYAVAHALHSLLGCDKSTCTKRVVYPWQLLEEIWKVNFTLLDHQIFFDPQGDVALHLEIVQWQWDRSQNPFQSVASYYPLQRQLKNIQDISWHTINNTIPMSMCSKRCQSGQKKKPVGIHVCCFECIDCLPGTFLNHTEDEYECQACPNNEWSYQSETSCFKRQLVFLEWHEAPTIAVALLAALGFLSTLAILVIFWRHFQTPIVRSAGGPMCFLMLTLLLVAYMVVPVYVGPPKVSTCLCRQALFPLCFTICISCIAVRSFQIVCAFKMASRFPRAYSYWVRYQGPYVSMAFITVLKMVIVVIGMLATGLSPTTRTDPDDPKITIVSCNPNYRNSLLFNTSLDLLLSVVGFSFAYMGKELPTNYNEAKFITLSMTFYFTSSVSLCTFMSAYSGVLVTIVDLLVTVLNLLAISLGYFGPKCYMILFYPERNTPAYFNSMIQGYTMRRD
T1 sequence (Q7RTX0 21-852): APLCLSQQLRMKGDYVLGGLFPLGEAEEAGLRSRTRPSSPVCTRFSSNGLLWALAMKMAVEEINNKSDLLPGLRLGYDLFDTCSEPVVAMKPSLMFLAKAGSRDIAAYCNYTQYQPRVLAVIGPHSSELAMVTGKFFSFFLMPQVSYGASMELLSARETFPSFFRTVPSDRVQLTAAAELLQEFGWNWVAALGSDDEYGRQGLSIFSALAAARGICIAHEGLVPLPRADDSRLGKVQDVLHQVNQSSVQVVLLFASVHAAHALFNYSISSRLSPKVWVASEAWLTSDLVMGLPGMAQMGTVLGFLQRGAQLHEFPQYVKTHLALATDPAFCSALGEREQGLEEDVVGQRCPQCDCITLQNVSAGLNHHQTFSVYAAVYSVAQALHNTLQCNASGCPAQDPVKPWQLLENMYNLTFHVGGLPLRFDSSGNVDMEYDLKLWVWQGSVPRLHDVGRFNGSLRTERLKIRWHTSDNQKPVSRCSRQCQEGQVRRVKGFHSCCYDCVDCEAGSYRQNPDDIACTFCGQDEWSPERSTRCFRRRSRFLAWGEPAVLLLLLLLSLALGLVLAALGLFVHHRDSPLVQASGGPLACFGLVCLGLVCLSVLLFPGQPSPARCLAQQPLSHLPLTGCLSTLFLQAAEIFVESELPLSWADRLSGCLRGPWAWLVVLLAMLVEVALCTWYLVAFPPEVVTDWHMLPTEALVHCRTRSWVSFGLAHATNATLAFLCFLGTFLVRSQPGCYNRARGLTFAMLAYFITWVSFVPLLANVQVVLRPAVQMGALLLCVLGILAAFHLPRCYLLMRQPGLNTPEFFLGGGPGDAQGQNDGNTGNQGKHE
Source text: Whether or not a certain sweet substance can trigger a sweetness response even if a sweetness response through the sweet taste receptor T1R2/T1R3 is inhibited may be determined by, for instance, measuring, by sensory evaluation or cell assay, the sweetness intensity of a solution (control solution), in which only the above sweet substance has been dissolved, and the sweetness intensity (remaining sweetness intensity) of a solution (test solution), in which a sweet taste receptor T1R2/T1R3 inhibitor (e.g., lactisole, gymnemic acid) is added for inhibiting a sweetness response through the sweet taste receptor T1R2/T1R3 to the control solution; and by comparing the sweetness intensity of the control solution and the sweetness intensity of the test solution.
The evaluation was carried out by those (3 persons) who received sensory trainings as panelists. […] Additionally, solutions having the same composition as sample solutions 1, 2, 3, and 4 except that lactisole was not added were used as control solutions 1, 2, 3, and 4. The sensory evaluation was carried out by spitting test. The sweetness intensity was rated by the VAS scale and calculated with the intensity of a solution to which lactisole was not added being 100% and the sweetness intensity of a solution to which lactisole was added as a relative value (%). The sweetness inhibitory effect by lactisole was verified by this.

[4] = Degree of sweetness relative to sucrose; conditions: value used to design the sample solutions of Example 5
Source text: The “sweetness intensity” means an intensity of sweetness of a substance. […] A numerical value obtained by multiplying the degree of sweetness by a concentration Brix value of glucose is the sweetness intensity of glucose in terms of sucrose. Thus, when a concentration of glucose in terms of sucrose is Brix 1.5, the sweetness intensity of glucose is 0.65×1.5=0.975. The sweetness intensity of a sweetener in terms of sucrose can be calculated from a degree of sweetness shown in the following table or a value of a known degree of sweetness.
For example, when the sweetness intensity of sucrose per unit concentration Brix 1 is defined as a degree of sweetness of 1, a degree of sweetness of rebaudioside D is about 200 to 250 (median value 225), a degree of sweetness of rebaudioside M is about 200 to 260 (median value 230), a degree of sweetness of rebaudioside B is about 325, a degree of sweetness of rebaudioside A is about 200 to 300 (median value 250), a degree of sweetness of rebaudioside N is about 200 to 250 (median value 225), a degree of sweetness of rebaudioside O is about 200 to 250 (median value 225), a degree of sweetness of rebaudioside E is about 70 to 80 (median value 75), a degree of sweetness of a Luo han guo extract (containing 40% of Mog V) is about 110 to 150 (median value 130), a degree of sweetness of mogroside V is about 240 to 300 (median value 270), and a degree of sweetness of thaumatin is about 2,000, and a degree of sweetness of brazzein is about 500 to 2,000 (median value 1,250). The numerical value obtained by multiplying these degrees of sweetness by a concentration (w/v % (considered to be the same as w/w % in the case of a beverage)) of the high-intensity sweetener in a fruit juice beverage is a sweetness intensity of the high-intensity sweetener. The relative ratio in degrees of sweetness of various sweeteners to the degree of sweetness of 1 of sucrose can be determined from a known sugar sweetness conversion table, and the like. In the present description, when a degree of sweetness is shown in a numerical value range, the median value may be used. However, a sweetener having different values in a degree of sweetness by literatures, a relative ratio in a degree of sweetness to the degree of sweetness of 1 of sucrose can be defined by a sensory test. Examples of such a sensory test include a method in which samples were prepared by adding sucrose having a sweetness intensity of Brix 3.0 to 5.0 in 0.5 increments to pure water, and of which a sucrose-added sample having a sweetness intensity equal to an aqueous solution of a sweetener in a predetermined concentration is selected.
Additionally, for a sweetener with a variable degree of sweetness as a sweetness intensity increases, degrees of sweetness in different concentrations are actually measured and plotted whereby a degree of sweetness in a predetermined concentration may be calculated from the obtained approximate curve.

Q: Which Degree of sweetness ([1]; Table 1) does the source give for `OC[C@H]1O[C@H](O[C@H]2[C@H](O)[C@@H](O)[C@H](O)O[C@@H]2CO)[C@H](O)[C@@H](O)[C@@H]1O` [Maltose] here?
A: 0.4

Q: Which Degree of sweetness ([1]; Table 1) does the source give for `O=C(CO)[C@@H](O)[C@@H](O)[C@H](O)CO` [Tagatose] here?
A: 0.9

Q: For rebaudioside B, which Degree of sweetness ([1]; high-intensity sweeteners) is on record?
A: about 325

Q: With `OC[C@H]1O[C@@](CO)(O[C@H]2O[C@H](CO)[C@@H](O)[C@H](O)[C@H]2O)[C@@H](O)[C@@H]1O` [Sucrose] as the compound, how does the Bitterness intensity [2] read?
A: 0 point

Q: And the Lingering bitter aftertaste [2]?
A: 0 point

Q: And the Lingering sweet aftertaste [2]?
A: 0 point

Q: What about the “Quickness in sweetness onset” value [2] of the same compound?
A: 0 point

Q: And the Sweetness intensity [2]?
A: 0 point

Q: And the Degree of sweetness ([1]; Table 1)?
A: 1

Q: What about the “Sweetness intensity residual ratio (%) with addition of 100 ppm lactisole” value (“Sweetness intensity residual ratio (%)” for short) [3] of the same compound?
A: 29.05%

Q: For `OC[C@H]1O[C@H](O[C@]2(CCl)O[C@H](CCl)[C@@H](O)[C@@H]2O)[C@H](O)[C@@H](O)[C@H]1Cl` [Sucralose], which “sweetness intensity, times as much as that of sucrose” value [4] is on record?
A: 538.54 times

Q: What about the “Sweetness intensity residual ratio (%)” value [3] of the same compound?
A: 8.99%

Q: Which Degree of sweetness ([1]; Table 1) does the source give for `O=C[C@H](O)[C@H](O)[C@H](O)[C@H](O)CO` [Allose] here?
A: 0.8

Q: Which “sweetness intensity, times as much as that of sucrose” value [4] does the source give for `O=C[C@H](O)[C@@H](O)[C@@H](O)CO` [L-Arabinose] here?
A: 0.6 times

Q: What about the “remaining sweetness intensity when 100 ppm of lactisole was added, compared with sucrose” value ([3]; 100 ppm lactisole) of the same compound?
A: equal to or more than that of sucrose

Q: What about the “Sweetness intensity residual ratio (%)” value [3] of the same compound?
A: 34.43%

Q: For thaumatin, which Degree of sweetness ([1]; high-intensity sweeteners) is on record?
A: about 2,000
